Assay [1] has as its target T1, GHSR1a (Homo sapiens, UniProt Q92847).
T1 construct: expressed in transfected cells; host or cells: HEK293
The experiment in a line: Calcium FLIPR assay, GHSR-1a antagonism (reduction of ghrelin response). The class given is cell-based. Conditions: HEK293/GHSR1a cells, ghrelin 10 nM. As for the experimental part: (§1) The intracellular calcium assay was carried out in a 384-well format FLIPR™ (Molecular Device) HEK293/GHSR1a cell line. Cells were seeded 24 hr prior to the experiments at an optimal density per well. Preincubation with selected calcium dye lasted for 30-60 min at room temperature or 37° C. Test compounds, dissolved in DMSO, were added at the appropriate time and incubated for 15 min followed by the addition of ghrelin with FlexStation or FLIPR. Relative fluorescence was monitored by the FLIPR™ Molecular Device. EC50 and IC50 values were estimated from dose-response data using GraphPad Prism software. To check for GHSR-1a agonism the compound was added at t=20 sec. and the calcium response was followed for 2 minutes. To check for GHSR-1a antagonism the compound and Ghrelin (10 nM) were added to the cells at t=20 sec. and the calcium response was measured for 2 minutes. The potency of the antagonist was calculated by its ability to reduce the ghrelin response. Dose-response curves were made for relevant antagonists.

Assay [2] deals with T1, GHSR1a. The experiment in a line: Calcium FLIPR assay, GHSR-1a agonism. The assay is classed as cell-based. Also on record: Emax: unit not given here. Conditions: HEK293/GHSR1a cells. On the procedure:
as §1

T1 sequence (Q92847 whole entry): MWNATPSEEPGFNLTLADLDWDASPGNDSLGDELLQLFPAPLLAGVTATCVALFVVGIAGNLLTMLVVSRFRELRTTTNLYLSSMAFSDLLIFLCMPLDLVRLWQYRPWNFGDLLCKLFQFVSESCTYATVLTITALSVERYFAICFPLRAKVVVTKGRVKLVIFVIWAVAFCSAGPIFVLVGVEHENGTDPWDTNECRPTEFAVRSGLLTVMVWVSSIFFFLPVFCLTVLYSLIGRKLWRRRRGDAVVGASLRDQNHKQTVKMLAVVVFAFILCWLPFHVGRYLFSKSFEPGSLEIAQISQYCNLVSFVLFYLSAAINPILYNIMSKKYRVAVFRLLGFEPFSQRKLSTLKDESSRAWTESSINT

A word on the IC50: it is the point on the concentration scale where inhibition reaches its midpoint. What is called EC50 is the concentration needed to bring the measured effect to its halfway point. `CC(NC(=O)N(C)C1CCN(C)CC1)c1ccc(-c2cccs2)c(Cl)c1Cl` (single isomer, unassigned) [Compound H0564, 3-(1-(2,3-dichloro-4-(thiophen-2-yl)phenyl)ethyl)-1-methyl-1-(1-methylpiperidin-4-yl)urea]: the IC50 in assay [1] worked out at 75 nM. Also, in assay [2], the EC50 came to 124 nM and the Emax is on record as 1987.

As for `CN1CCC(N(O)C(=O)NC(CC2CC2)c2ccc(-c3cnccn3)c(Cl)c2Cl)CC1` (single isomer, unassigned) [Compound H0781, 3-(2-cyclopropyl-1-(2,3-dichloro-4-(pyrazin-2-yl)phenyl)ethyl)-1-hydroxy-1-(1-methylpiperidin-4-yl)urea], the half-maximal inhibitory concentration (IC50) in assay [1] amounted to 95 nM. In assay [2], the EC50 was 420 nM and the Emax is 4210.

For the compound `CC[C@@H](NC(=O)N(C)C1CCN(C)CC1)c1ccc(-c2cnccn2)c(Cl)c1Cl` (single isomer, unassigned) [Compound H0859], in assay [1], the IC50 amounted to 2200 nM. Besides, the EC50 in assay [2] was above 30000 nM.

As for `C[C@H](NC(=O)N(C)C1CCN(C)C1)c1ccc(-c2cnccn2)c(Cl)c1Cl` (single isomer, unassigned) [Compound H0861], in assay [1], the IC50 amounted to 189 nM. For the same compound, the EC50 in assay [2] is above 30000 nM.

On to `CC(NC(=O)N(C)C1CCN(C)CC1)c1ccc(-c2cccc3c2cnn3C)c(Cl)c1Cl` (stereo not drawn) [Compound H0512, 3-(1-(2,3-dichloro-4-(1-methyl-1H-indazol-4-yl)phenyl)ethyl)-1-methyl-1-(1-methylpiperidin-4-yl)urea], for which the half-maximal inhibitory concentration (IC50) in assay [1] was 495 nM. In assay [2], the EC50 was above 30000 nM.

For `CC(NC(=O)N(C)C1CCN(C)CC1)c1ccc(-c2cccc3[nH]ncc23)c(Cl)c1Cl` (stereo not drawn) [Compound H0513, 3-(1-(2,3-dichloro-4-(1H-indazol-4-yl)phenyl)ethyl)-1-methyl-1-(1-methylpiperidin-4-yl)urea], in assay [1], the IC50 was 544 nM. Further, the EC50 in assay [2] was above 30000 nM.

Take `CC(NC(=O)N(C)C1CCN(C)CC1)c1ccc(-c2ccc3[nH]ccc3c2)c(Cl)c1Cl` (stereo not drawn) [Compound H0515, 3-(1-(2,3-dichloro-4-(1H-indol-5-yl)phenyl)ethyl)-1-methyl-1-(1-methylpiperidin-4-yl)urea]: in assay [1], the IC50 amounted to 40 nM. For the same compound, the EC50 in assay [2] was determined as 885 nM.

For the compound `CC(NC(=O)N(C)C1CCN(C)CC1)c1ccc(-c2ccc(N)cc2)c(Cl)c1Cl` (stereo not drawn) [Compound H0517, 3-(1-(4′-amino-2,3-dichloro-[1,1′-biphenyl]-4-yl)ethyl)-1-methyl-1-(1-methylpiperidin-4-yl)urea], the IC50 in assay [1] worked out at 19 nM. For the same compound, in assay [2], the EC50 was above 30000 nM.

In the case of `CC(NC(=O)N(C)C1CCN(C)CC1)c1ccc(-c2ccc(N(C)C)cc2)c(Cl)c1Cl` (stereo not drawn) [Compound H0518, 3-(1-(2,3-dichloro-4′-(dimethylamino)-[1,1′-biphenyl]-4-yl)ethyl)-1-methyl-1-(1-methylpiperidin-4-yl)urea], the IC50 in assay [1] came out at 841 nM. For the same compound, the EC50 in assay [2] is above 30000 nM.

As for `CC(NC(=O)N(C)C1CCN(C)CC1)c1ccc(C2=CCCCC2)c(Cl)c1Cl` (stereo not drawn) [Compound H0520, 3-(1-(2,3-dichloro-2′,3′,4′,5′-tetrahydro-[1,1′-biphenyl]-4-yl)ethyl)-1-methyl-1-(1-methylpiperidin-4-yl)urea], in assay [1], the IC50 was 202 nM. In addition, the EC50 in assay [2] is 394 nM.

For `COC(=O)c1ccc(C(C)NC(=O)N(C)C2CCN(C)CC2)c(Cl)c1Cl` (stereo not drawn) [Compound H0521], in assay [1], the IC50 amounted to 20 nM. For the same compound, in assay [2], the EC50 is 19 nM.

Turning to `CC(NC(=O)N(C)C1CCN(C)CC1)c1ccc(C#N)c(Cl)c1Cl` (stereo not drawn) [Compound H0523, 3-(1-(2,3-dichloro-4-cyanophenyl)ethyl)-1-methyl-1-(1-methylpiperidin-4-yl)urea], the IC50 in assay [1] was found to be 668 nM. Further, the EC50 in assay [2] is above 30000 nM.

As for `CC(NC(=O)N(C)C1CCN(C)C1)c1ccc(-c2cccnc2)c(Cl)c1Cl` (stereo not drawn) [Compound H0526, 3-(1-(2,3-dichloro-4-(pyridin-3-yl)phenyl)ethyl)-1-methyl-1-(1-methylpyrrolidin-3-yl)urea], in assay [1], the IC50 is 57 nM. The EC50 in assay [2] was above 30000 nM.

Consider `CC(NC(=O)N(C)C1CCN(C)CC1)c1ccc(-c2ccc[nH]2)c(Cl)c1Cl` (stereo not drawn) [Compound H0535, 3-(1-(2,3-dichloro-4-(1H-pyrrol-2-yl)phenyl)ethyl)-1-methyl-1-(1-methylpiperidin-4-yl)urea], for which, in assay [1], the IC50 worked out at 34 nM. The EC50 in assay [2] turned out to be 4 nM.

For `COC(=O)c1ccc(CN(C(=O)NC(C)c2ccc(-c3cccnc3)c(Cl)c2Cl)C2CCN(C)CC2)cc1` (stereo not drawn) [Compound H0539, methyl 4-((3-(1-(2,3-dichloro-4-(pyridin-3-yl)phenyl)ethyl)-1-(1-methylpiperidin-4-yl)ureido)methyl)benzoate], the IC50 in assay [1] stood at 9 nM. The EC50 in assay [2] is above 30000 nM.

Turning to `CC(NC(=O)N(C)C1CCN(C)CC1)c1ccc(-c2cn[nH]c2)c(Cl)c1F` (stereo not drawn) [Compound H0571, 3-(1-(3-chloro-2-fluoro-4-(1H-pyrazol-4-yl)phenyl)ethyl)-1-methyl-1-(1-methylpiperidin-4-yl)urea], in assay [1], the IC50 was determined as 154 nM. Also, the EC50 in assay [2] was above 30000 nM.

On to `CC(NC(=O)N(C)C1CCN(C)CC1)c1ccc(-c2cn[nH]c2)c2ccccc12` (stereo not drawn) [Compound H0576, 3-(1-(4-(1H-pyrazol-4-yl)naphthalen-1-yl)ethyl)-1-methyl-1-(1-methylpiperidin-4-yl)urea], for which, in assay [1], the IC50 is 180 nM. Also, the EC50 in assay [2] was above 30000 nM.

Take `CC(NC(=O)N(C)C1CCN(C)CC1)c1ccc(-c2cccnc2)c2ccccc12` (stereo not drawn) [Compound H0577, 1-methyl-1-(1-methylpiperidin-4-yl)-3-(1-(4-(pyridin-3-yl)naphthalen-1-yl)ethyl)urea]: the IC50 in assay [1] is 233 nM. Also, the EC50 in assay [2] was above 30000 nM.

On to `CC(NC(=O)N(C)C1CCN(C)CC1)c1ccc(-c2ccncc2)c2ccccc12` (stereo not drawn) [Compound H0578, 1-methyl-1-(1-methylpiperidin-4-yl)-3-(1-(4-(pyridin-4-yl)naphthalen-1-yl)ethyl)urea], for which the IC50 in assay [1] worked out at 490 nM. In addition, the EC50 in assay [2] was above 30000 nM.

Consider `CC(NC(=O)N(C)C1CCN(C)CC1)c1ccc(-c2cncnc2)c2ccccc12` (stereo not drawn) [Compound H0579, 1-methyl-1-(1-methylpiperidin-4-yl)-3-(1-(4-(pyrimidin-5-yl)naphthalen-1-yl)ethyl)urea], for which the EC50 in assay [2] was above 30000 nM.

Turning to `CC(NC(=O)N(C)C1CCCCC1)c1ccc(-c2cncnc2)c(Cl)c1Cl` (stereo not drawn) [Compound H0584, 1-cyclohexyl-3-(1-(2,3-dichloro-4-(pyrimidin-5-yl)phenyl)ethyl)-1-methylurea], in assay [1], the half-inhibitory concentration (IC50) worked out at 1100 nM. Also, the EC50 in assay [2] is above 30000 nM.

Regarding `CC(NC(=O)N(C)C1CCOCC1)c1ccc(-c2cncnc2)c(Cl)c1Cl` (stereo not drawn) [Compound H0586, 3-(1-(2,3-dichloro-4-(pyrimidin-5-yl)phenyl)ethyl)-1-methyl-1-(tetrahydro-2H-pyran-4-yl)urea], the IC50 in assay [1] was found to be 4200 nM. Besides, the EC50 in assay [2] was 63000 nM.

As for `COc1ccc(C(C#N)NC(=O)N(C)C2CCN(C)CC2)c(Cl)c1Cl` (stereo not drawn) [Compound H0669, 3-(cyano(2,3-dichloro-4-methoxyphenyl)methyl)-1-methyl-1-(1-methylpiperidin-4-yl)urea], in assay [2], the EC50 stood at 5 nM and the Emax was found to be 4961.

As for `COC(=O)c1ccc(C#Cc2ccc(C(C)NC(=O)N(C)C3CCN(C)CC3)c(Cl)c2Cl)s1` (stereo not drawn) [Compound H0779], the IC50 in assay [1] turned out to be 429 nM.
